# Molecular target: IDO1 (Homo sapiens, UniProt P14902)
# Test: IDO1 Cellular Assay in HeLa Cells Stimulated with IFNγ
# Format: cell-based
# Details: read-out: HeLa Cell Potency, IC50
# Sequence of IDO1 (P14902 whole entry): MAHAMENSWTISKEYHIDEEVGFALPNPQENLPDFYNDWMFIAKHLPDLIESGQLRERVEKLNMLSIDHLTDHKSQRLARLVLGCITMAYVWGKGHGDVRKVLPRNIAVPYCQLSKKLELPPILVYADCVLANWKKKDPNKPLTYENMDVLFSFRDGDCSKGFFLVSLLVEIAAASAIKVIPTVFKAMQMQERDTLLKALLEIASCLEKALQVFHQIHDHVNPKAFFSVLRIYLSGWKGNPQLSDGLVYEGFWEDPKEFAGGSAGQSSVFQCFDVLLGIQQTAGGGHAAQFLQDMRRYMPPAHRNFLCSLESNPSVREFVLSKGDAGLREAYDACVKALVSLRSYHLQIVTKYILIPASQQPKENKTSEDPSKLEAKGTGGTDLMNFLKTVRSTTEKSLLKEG
row,SMILES,IC50 [nM]
1,"Cc1cccc(N2CCN(C(=O)Cn3nc(C(=O)N4CC5CCC4CC5O)c4c3CCC4)CC2)c1C (centres unmarked) [Example 152, 1-[4-(2,3-dimethylphenyl)piperazin-1-yl]-2-[3-(5-hydroxy-2-azabicyclo[2.2.2]octane-2-carbonyl)-5,6-dihydrocyclopenta[c]pyrazol-1(4H)-yl]ethan-1-one]",34.2
2,"Cc1cccc(N2CCN(C(=O)Cn3nc(C(=O)N4CC5CCC(F)(F)C5C4)c4c3CCC4)CC2)c1C (centres unmarked) [Example 153, 2-[3-(4,4-difluorohexahydrocyclopenta[c]pyrrole-2(1H)-carbonyl)-5,6-dihydrocyclopenta[c]pyrazol-1(4H)-yl]-1-[4-(2,3-dimethylphenyl)piperazin-1-yl]ethan-1-one]",3.19
3,"Cc1cccc(N2CCN(C(=O)Cn3nc(C(=O)N4CCC(CCO)C4)c4c3CCC4)CC2)c1C (centres unmarked) [Example 154, 1-[4-(2,3-dimethylphenyl)piperazin-1-yl]-2-{3-[3-(2-hydroxyethyl)pyrrolidine-1-carbonyl]-5,6-dihydrocyclopenta[c]pyrazol-1(4H)-yl}ethan-1-one]",2.99
4,"Cc1cccc(N2CCN(C(=O)Cn3nc(C(=O)N4CCOC(CO)C4)c4c3CCC4)CC2)c1C (centres unmarked) [Example 155, 1-[4-(2,3-dimethylphenyl)piperazin-1-yl]-2-{3-[2-(hydroxymethyl)morpholine-4-carbonyl]-5,6-dihydrocyclopenta[c]pyrazol-1(4H)-yl}ethan-1-one]",28.5
5,"Cc1cccc(N2CCN(C(=O)Cn3nc(C(=O)N4CCOC(CO)C4)c4c3CCC4)CC2)c1C (centres unmarked) [Example 156, 1-[4-(2,3-dimethylphenyl)piperazin-1-yl]-2-{3-[2-(hydroxymethyl)morpholine-4-carbonyl]-5,6-dihydrocyclopenta[c]pyrazol-1(4H)-yl}ethan-1-one]",29.3
6,"Cc1cccc(N2CCN(C(=O)Cn3nc(C(=O)N4CCN(C(C)C)CC4)c4c3CCC4)CC2)c1C [Example 159, 1-[4-(2,3-dimethylphenyl)piperazin-1-yl]-2-{3-[4-(propan-2-yl)piperazine-1-carbonyl]-5,6-dihydrocyclopenta[c]pyrazol-1(4H)-yl}ethan-1-one]",25.2
7,"Cc1cccc(N2CCN(C(=O)Cn3nc(C(=O)N4CCN(CCO)CC4)c4c3CCC4)CC2)c1C [Example 162, 1-[4-(2,3-dimethylphenyl)piperazin-1-yl]-2-{3-[4-(2-hydroxyethyl)piperazine-1-carbonyl]-5,6-dihydrocyclopenta[c]pyrazol-1(4H)-yl}ethan-1-one]",10.5
8,"Cc1cccc(N2CCN(C(=O)Cn3nc(C(=O)N4CCC5(CC4)COC(=O)N5)c4c3CCC4)CC2)c1C [Example 163, 8-(1-{2-[4-(2,3-dimethylphenyl)piperazin-1-yl]-2-oxoethyl}-1,4,5,6-tetrahydrocyclopenta[c]pyrazole-3-carbonyl)-3-oxa-1,8-diazaspiro[4.5] decan-2-one]",10.3
9,Cc1cccc(N2CCN(C(=O)Cn3nc(C(=O)N4CCC(N5CCCC5)CC4)c4c3CCC4)CC2)c1C [Example 164],68.9
10,"Cc1cccc(N2CCN(C(=O)Cn3nc(C(=O)N4CCN(C)[C@@H](C)C4)c4c3CCC4)CC2)c1C [Example 166, 1-[4-(2,3-dimethylphenyl)piperazin-1-yl]-2-{3-[(3S)-3,4-dimethylpiperazine-1-carbonyl]-5,6-dihydrocyclopenta[c]pyrazol-1(4H)-yl}ethan-1-one]",6.18
11,"Cc1cccc(N2CCN(C(=O)Cn3nc(C(=O)N4CCC(O)(C(N)=O)CC4)c4c3CCC4)CC2)c1C [Example 169, 1-(1-{2-[4-(2,3-dimethylphenyl)piperazin-1-yl]-2-oxoethyl}-1,4,5,6-tetrahydrocyclopenta[c]pyrazole-3-carbonyl)-4-hydroxypiperidine-4-carboxamide]",30.4
12,"Cc1cccc(N2CCN(C(=O)Cn3nc(C(=O)N4CCC(O)(CCC(F)(F)F)CC4)c4c3CCC4)CC2)c1C [Example 170, 1-[4-(2,3-dimethylphenyl)piperazin-1-yl]-2-{3-[4-hydroxy-4-(3,3,3-trifluoropropyl)piperidine-1-carbonyl]-5,6-dihydrocyclopenta[c]pyrazol-1(4H)-yl}ethan-1-one]",6.31
13,"Cc1cccc(N2CCN(C(=O)Cn3nc(C(=O)N4CCC5(C4)CC5(F)F)c4c3CCC4)CC2)c1C (centres unmarked) [Example 171, 2-[3-(1,1-difluoro-5-azaspiro[2.4]heptane-5-carbonyl)-5,6-dihydrocyclopenta[c]pyrazol-1(4H)-yl]-1-[4-(2,3-dimethylphenyl)piperazin-1-yl]ethan-1-one]",5.79
14,"Cc1cccc(N2CCN(C(=O)Cn3nc(C(=O)N4CCC5(CCNC5)CC4)c4c3CCC4)CC2)c1C [Example 175, 2-[3-(2,8-diazaspiro[4.5]decane-8-carbonyl)-5,6-dihydrocyclopenta[c]pyrazol-1(4H)-yl]-1-[4-(2,3-dimethylphenyl)piperazin-1-yl]ethan-1-one]",498
15,"Cc1cccc(N2CCN(C(=O)Cn3nc(C(=O)N4CCC(C)(N)CC4)c4c3CCC4)CC2)c1C [Example 176, 2-[3-(4-amino-4-methylpiperidine-1-carbonyl)-5,6-dihydrocyclopenta[c]pyrazol-1(4H)-yl]-1-[4-(2,3-dimethylphenyl)piperazin-1-yl]ethan-1-one]",476
16,"Cc1cccc(N2CCN(C(=O)Cn3nc(C(=O)N4CCC5(CCCN5)CC4)c4c3CCC4)CC2)c1C [Example 177, 2-[3-(1,8-diazaspiro[4.5]decane-8-carbonyl)-5,6-dihydrocyclopenta[c]pyrazol-1(4H)-yl]-1-[4-(2,3-dimethylphenyl)piperazin-1-yl]ethan-1-one]",405

# Other lines, results leading:
row,IC50 [nM],SMILES
1,16.4,"Cc1cccc(N2CCN(C(=O)Cn3nc(C(=O)N4CCC(F)(CN)CC4)c4c3CCC4)CC2)c1C [Example 178, 2-{3-[4-(aminomethyl)-4-fluoropiperidine-1-carbonyl]-5,6-dihydrocyclopenta[c]pyrazol-1(4H)-yl}-1-[4-(2,3-dimethylphenyl)piperazin-1-yl]ethan-1-one]"
2,82.8,"Cc1cccc(N2CCN(C(=O)Cn3nc(C(=O)N4CCC(C)(CN)CC4)c4c3CCC4)CC2)c1C [Example 179, 2-{3-[4-(aminomethyl)-4-methylpiperidine-1-carbonyl]-5,6-dihydrocyclopenta[c]pyrazol-1(4H)-yl}-1-[4-(2,3-dimethylphenyl)piperazin-1-yl]ethan-1-one]"
3,11.6,"Cc1cccc(N2CCN(C(=O)Cn3nc(C(=O)N4CCC(CN)CC4)c4c3CCC4)CC2)c1C [Example 180, 2-{3-[4-(aminomethyl)piperidine-1-carbonyl]-5,6-dihydrocyclopenta[c]pyrazol-1(4H)-yl}-1-[4-(2,3-dimethylphenyl)piperazin-1-yl]ethan-1-one]"
4,6.25,"Cc1cccc(N2CCN(C(=O)Cn3nc(C(=O)N4CCC5(CC4)COCC5O)c4c3CCC4)CC2)c1C (centres unmarked) [Example 182, 1-[4-(2,3-dimethylphenyl)piperazin-1-yl]-2-[3-(4-hydroxy-2-oxa-8-azaspiro[4.5]decane-8-carbonyl)-5,6-dihydrocyclopenta[c]pyrazol-1(4H)-yl]ethan-1-one]"
5,3.22,"Cc1cccc(N2CCN(C(=O)Cn3nc(C(=O)N4CCC5(CCCC(=O)N5)CC4)c4c3CCC4)CC2)c1C [Example 183, 9-(1-{2-[4-(2,3-dimethylphenyl)piperazin-1-yl]-2-oxoethyl}-1,4,5,6-tetrahydrocyclopenta[c]pyrazole-3-carbonyl)-1,9-diazaspiro[5.5]undecan-2-one]"
6,80.2,"Cc1cccc(N2CCN(C(=O)Cn3nc(C(=O)N4CCC5(CC4)CNC(=O)N5)c4c3CCC4)CC2)c1C [Example 184, 8-(1-{2-[4-(2,3-dimethylphenyl)piperazin-1-yl]-2-oxoethyl}-1,4,5,6-tetrahydrocyclopenta[c]pyrazole-3-carbonyl)-1,3,8-triazaspiro[4.5]decan-2-one]"
7,120,"CC(=O)NC1CCCN(C(=O)c2nn(CC(=O)N3CCN(c4cccc(C)c4C)CC3)c3c2CCC3)C1 (centres unmarked) [Example 185, N-[1-(1-{2-[4-(2,3-dimethylphenyl)piperazin-1-yl]-2-oxoethyl}-1,4,5,6-tetrahydrocyclopenta[c]pyrazole-3-carbonyl)piperidin-3-yl]acetamide]"
8,37.9,"Cc1cccc(N2CCN(C(=O)Cn3nc(C(=O)N4CCCC(N(C)C)C4)c4c3CCC4)CC2)c1C (centres unmarked) [Example 186, 2-{3-[3-(dimethylamino)piperidine-1-carbonyl]-5,6-dihydrocyclopenta[c]pyrazol-1(4H)-yl}-1-[4-(2,3-dimethylphenyl)piperazin-1-yl]ethan-1-one]"
9,76.1,"Cc1cccc(N2CCN(C(=O)Cn3nc(C(=O)N4CCCC(N5CCCC5)C4)c4c3CCC4)CC2)c1C (centres unmarked) [Example 187, 1-[4-(2,3-dimethylphenyl)piperazin-1-yl]-2-{3-[3-(pyrrolidin-1-yl)piperidine-1-carbonyl]-5,6-dihydrocyclopenta[c]pyrazol-1(4H)-yl}ethan-1-one]"
10,9.76,"Cc1cccc(N2CCN(C(=O)Cn3nc(C(=O)N4CCC(NC(N)=O)CC4)c4c3CCC4)CC2)c1C [Example 188, N-[1-(1-{2-[4-(2,3-dimethylphenyl)piperazin-1-yl]-2-oxoethyl}-1,4,5,6-tetrahydrocyclopenta[c]pyrazole-3-carbonyl)piperidin-4-yl]urea]"
11,4.53,"Cc1cccc(N2CCN(C(=O)Cn3nc(C(=O)N4CCC(O)(C(F)(F)F)CC4)c4c3CCC4)CC2)c1C [Example 189, 1-[4-(2,3-dimethylphenyl)piperazin-1-yl]-2-{3-[4-hydroxy-4-(trifluoromethyl)piperidine-1-carbonyl]-5,6-dihydrocyclopenta[c]pyrazol-1(4H)-yl}ethan-1-one]"
12,1.62,"Cc1cccc(N2CCN(C(=O)Cn3nc(C(=O)N4CCC5(CC4)CNC(=O)CO5)c4c3CCC4)CC2)c1C [Example 190, 9-(1-{2-[4-(2,3-dimethylphenyl)piperazin-1-yl]-2-oxoethyl}-1,4,5,6-tetrahydrocyclopenta[c]pyrazole-3-carbonyll)-1-oxa-4,9-diazaspiro[5.5]undecan-3-one]"
13,2.92,"Cc1cccc(N2CCN(C(=O)Cn3nc(C(=O)N4CCN5CCCC[C@H]5C4)c4c3CCC4)CC2)c1C [Example 191, 1-[4-(2,3-dimethylphenyl)piperazin-1-yl]-2-{3-[(9aS)-octahydro-2H-pyrido[1,2-a]pyrazine-2-carbonyl]-5,6-dihydrocyclopenta[c]pyrazol-1(4H)-yl}ethan-1-one]"
